In patent US20050233904A1, “Herbicide-safener combination” (Bayer CropScience GmbH, priority 2004, published 2005):

Key:
Assay type in all cases: in vivo
[1] = tested on: harmful plants such as Sinapis alba, Chrysanthemum segetum, Avena sativa, Stellaria media, Echinochloa crus-galli, Lolium multiflorum, Setaria viridis …; experiment: Pre-emergence action against weeds (greenhouse pot test, optical scoring vs untreated controls); settings: herbicide-safener combination with the safeners dymron (b-14), fenclorim (b-11), cumyluron (b-4), isoxadifen-ethyl (II-9), mefenpyr-diethyl (II-1), cloquintocet-mexyl (III-1), S3-1, h-1, h-2, h-3, dietholate (b-7), disulfoton (b-5), 1,8-naphthalic anhydride (b-1), fluxofenim (b-10), dichlormid (IV-1), benoxacor (IV-2), flurazole (b-12), R-29148 (IV-4); application rate of 100 g or less of herbicid
From the text: (§1) Seeds or rhizome pieces of monocotyledonous and dicotyledonous weed plants were placed in sandy loam soil in cardboard pots and covered with soil. The active compounds (A) and (B), formulated in the form of wettable powders or emulsion concentrates, were then applied to the surface of the covering soil in various dosages as an aqueous suspension or emulsion using a water application rate of 600 to 800 I/ha (converted).
After the treatment, the pots were placed in a greenhouse and kept under good growth conditions for the weeds. Optical scoring of the damage to the plants or emerged plants was carried out after emergence of the test plants after a trial period of 3 to 4 weeks, in comparison to untreated controls. As shown by the results, the tested herbicide-safener combinations have good herbicidal pre-emergence activity against a broad spectrum of weed grasses and broad-leaved weeds.

[2] = tested on: harmful plants such as Sinapis alba, Echinochloa crus-galli, Lolium multiflorum, Chrysanthemum segetum, Setaria viridis, Abutilon theophrasti, Amaranthus …; experiment: Post-emergence action against weeds (greenhouse pot test, visual scoring vs untreated controls); settings: herbicide-safener combination with the safeners dymron (b-14), fenclorim (b-11), cumyluron (b-4), isoxadifen-ethyl (II-9), mefenpyr-diethyl (II-1), cloquintocet-mexyl (III-1), S3-1, h-1, h-2, h-3, dietholate (b-7), disulfoton (b-5), 1,8-naphthalic anhydride (b-1), fluxofenim (b-10), dichlormid (IV-1), benoxacor (IV-2), flurazole (b-12), R-29148 (IV-4); treated at three-leaf stage; application rate
Experimental: (§2) Seeds or rhizome pieces of monocotyledonous and dicotyledonous weeds were placed into sandy loam soil in plastic pots, covered with soil and grown in a greenhouse under good growth conditions. Three weeks after sowing, the test plants were treated at the three-leaf stage. The compounds according to the invention, formulated as wettable powders or as emulsion concentrates, were sprayed onto the green parts of the plants at various dosages using a water application rate of 600 to 800 I/ha (converted). The test plants were stood in the greenhouse under optimum growth conditions for about three to four weeks, and the action of the preparations was then scored visually in comparison to untreated controls. Post-emergence, too, the herbicide-safener combinations according to the invention have good herbicidal activity against a broad spectrum of economically important weed grasses and broad-leaved weeds.

[3] = tested on: crop plants such as cotton, oil seed rape, sugar beet and Gramineae crops such as barley, wheat, rye, millet, corn or rice; settings: herbicide-safener combination with the safeners dymron (b-14), fenclorim (b-11), cumyluron (b-4), isoxadifen-ethyl (II-9), mefenpyr-diethyl (II-1), cloquintocet-mexyl (III-1), S3-1, h-1, h-2, h-3, dietholate (b-7), disulfoton (b-5), 1,8-naphthalic anhydride (b-1), fluxofenim (b-10), dichlormid (IV-1), benoxacor (IV-2), flurazole (b-12), R-29148 (IV-4); pre-emergence or post-emergence method; score
From the text: as §1, §2
In further greenhouse trials, seeds of a relatively large number of crop plants and weeds were placed into sandy loam soil and covered with soil. Some of the pots were immediately treated as described in Section 1, the others were placed in a greenhouse until the plants had developed two to three true leaves and were then sprayed with various dosages of the herbicide-safener combinations according to the invention, as described in Section 2.

Row | Compound | herbicidal activity against harmful plants, pre-emergence method [1] | herbicidal activity against harmful plants, post-emergence method [2] | damage to crop plants [3]
1 | CCOc1cc(OC)nc(NC(=O)NS(=O)(=O)c2ncccc2C2=NOCCO2)n1 [Compound I-1] | very good herbicidal activity | very good herbicidal activity | did not cause any damage
2 | COc1cc(C)nc(NC(=O)[N-]S(=O)(=O)c2ncccc2C2=NOCCO2)n1.[Na+] [Compound I-3] | very good herbicidal activity | very good herbicidal activity | did not cause any damage
3 | COc1cc(N(C)C)nc(NC(=O)NS(=O)(=O)c2ncccc2C2=NOCCO2)n1 [Compound I-8] | very good herbicidal activity | very good herbicidal activity | did not cause any damage
4 | COc1cc(Cl)nc(NC(=O)NS(=O)(=O)c2ncccc2C2=NOCCO2)n1 [Compound I-9] | very good herbicidal activity | very good herbicidal activity | did not cause any damage
5 | COc1cc(Cl)nc(NC(=O)[N-]S(=O)(=O)c2ncccc2C2=NOCCO2)n1.[Na+] [Compound I-10] | very good herbicidal activity | very good herbicidal activity | did not cause any damage
6 | COc1cc(OC)nc(NC(=O)NS(=O)(=O)c2ncccc2C2=NOCCO2)n1 [Compound I-11] | very good herbicidal activity | very good herbicidal activity | did not cause any damage
7 | COc1cc(OC)nc(NC(=O)[N-]S(=O)(=O)c2ncccc2C2=NOCCO2)n1.[Na+] [Compound I-12] | very good herbicidal activity | very good herbicidal activity | did not cause any damage
8 | CCOc1cc(OCC)nc(NC(=O)[N-]S(=O)(=O)c2ncccc2C2=NOCCO2)n1.[Na+] [Compound I-14] | very good herbicidal activity | very good herbicidal activity | did not cause any damage
9 | CCOc1cc(Cl)nc(NC(=O)NS(=O)(=O)c2ncccc2C2=NOCCO2)n1 [Compound I-21] | very good herbicidal activity | very good herbicidal activity | did not cause any damage
10 | CCOc1cc(Cl)nc(NC(=O)[N-]S(=O)(=O)c2ncccc2C2=NOCCO2)n1.[Na+] [Compound I-22] | very good herbicidal activity | very good herbicidal activity | did not cause any damage
11 | Cc1cc(C)nc(NC(=O)NS(=O)(=O)c2ncccc2C2=NOCCO2)n1 [Compound I-23] | very good herbicidal activity | very good herbicidal activity | did not cause any damage
12 | Cc1cc(Cl)nc(NC(=O)NS(=O)(=O)c2ncccc2C2=NOCCO2)n1 [Compound I-29] | very good herbicidal activity | very good herbicidal activity | did not cause any damage
13 | Cc1cc(Cl)nc(NC(=O)[N-]S(=O)(=O)c2ncccc2C2=NOCCO2)n1.[Na+] [Compound I-30] | very good herbicidal activity | very good herbicidal activity | did not cause any damage
14 | COc1nc(NC(=O)NS(=O)(=O)c2ncccc2C2=NOCCO2)nc(OC)n1 [Compound I-51] | very good herbicidal activity | very good herbicidal activity | did not cause any damage
15 | COc1nc(NC(=O)[N-]S(=O)(=O)c2ncccc2C2=NOCCO2)nc(OC)n1.[Na+] [Compound I-52] | very good herbicidal activity | very good herbicidal activity | did not cause any damage
16 | COc1nc(NC(=O)[N-]S(=O)(=O)c2ncccc2C2=NOCCO2)nc(N(C)C)n1.[Na+] [Compound I-60] | very good herbicidal activity | very good herbicidal activity | did not cause any damage
17 | CCOc1nc(Cl)nc(NC(=O)[N-]S(=O)(=O)c2ncccc2C2=NOCCO2)n1.[Na+] [Compound I-70] | very good herbicidal activity | very good herbicidal activity | did not cause any damage
18 | CN(C)c1nc(NC(=O)NS(=O)(=O)c2ncccc2C2=NOCCO2)nc(OCC(F)(F)F)n1 [Compound I-142] | very good herbicidal activity | very good herbicidal activity | did not cause any damage
19 | O=C(Nc1nc(Cl)cc(OCC(F)(F)F)n1)NS(=O)(=O)c1ncccc1C1=NOCCO1 [Compound I-143] | very good herbicidal activity | very good herbicidal activity | did not cause any damage
20 | O=C([N-]S(=O)(=O)c1ncccc1C1=NOCCO1)Nc1nc(Cl)cc(OCC(F)(F)F)n1.[Na+] [Compound I-145] | very good herbicidal activity | very good herbicidal activity | did not cause any damage
